In US8536132B2, “Lymphatic zip codes in tumors and pre-malignant lesions” (Sanford-Burnham Medical Research Institute, priority 2006, dated 2013):

Test system: MMTV-PyMT premalignant lesions
Test: In vivo phage homing to MMTV-PyMT premalignant lesions
Parameters: species or system mouse
Description: The following cell lines were maintained in DMEM supplemented with 10% FCS: C8161 human melanoma, MDA-MB-435 human breast cancer, KRIB human osteosarcoma, and human prostate cancer cells PPC1, DU145. LNCaP human prostate cancer cell line was grown in RPMI 1640 medium with 10 mM HEPES, 1 mM sodium pyruvate and 1.5 g/L sodium bicarbonate supplemented with 10% FCS. M12 human prostate cancer cell line was cultured in RPMI 1640 with 5 μg/ml insulin-transferrin-sodium selenite (ITS), 2.5 μg/ml fungizone, 50 μg/ml gentamycin, 0.2 μM dexamethasone, 10 ng/ml epidermal growth factor (EGF), and 5% FCS (Bae et al., 1998). To produce tumors, nude BALB/c and C56BL/6 mice were subcutaneously (C8161, KRIB, and PPC1) or orthotopically ([…], PPC1, DU145, M12, and LNCaP) injected with 1×10^6 tumor cells. Transgenic mouse tumor models included TRAMP prostate cancer, MMTV-PyMT breast cancer, and K14-HPV16 cervical cancer. To initiate cervical carcinogenesis, female K14-HPV16 mice (Arbeit et al., 1994) were treated with 17β-estradiol (E2; (Arbeit et al., 1996; Giraudo et al., 2004). Briefly, one-month-old virgin female transgenic (heterozygous K14-HPV16, 1203#1) and nontransgenic (FVB/n) mice were anesthetized with isoflurane, and continuous release pellets that deliver E2 at doses of 0.05 mg over 60 days (Innovative Research of America, Sarasota, Fla., USA) were implanted subcutaneously in the dorsal back skin. Subsequent pellets were implanted at 3 and 5 months of age for a total of 6 months of hormone treatment. K14-HPV16 mice were maintained in the FVB/n background (FVB/n; The Jackson Laboratory). The mice were maintained in accordance with the University of California, San Francisco (UCSF) institutional guidelines governing the care of laboratory mice. The animal experimentation was approved by Animal Research Committees at UCSF or The Burnham Institute.
In vivo homing specificity of phage was tested as described (Hoffman, 2004). Briefly, mice bearing tumors were anesthetized and intravenously injected with 5×10^9 pfu of phage. […]

[1] = phage homing in vivo, MMTV-PyMT premalignant lesions

With “CAGRRSAYC [homing peptide for pre-malignant TRAMP prostate lesions]” the “phage homing to MMTV-PyMT premalignant lesions (in words)” value (i.v. injected phage) was “little homing of the phage”, the “Fold over control phage” value [1] was 2 fold and the “Specific Homing” value [1] was “No”.
